How the values were obtained:
[1] = biological target: V. harveyi wild-type CqsS receptor (Vibrio campbellii, UniProt A7N6S2); test: cell-based; type: cell-based
[2] = biological target: V. cholerae CqsS receptor (wild-type) (Vibrio cholerae serotype O1, UniProt Q9KM66); type: cell-based
V. harveyi CqsA = V. harveyi CqsA (Vibrio campbellii, UniProt A7N6R9); test: Coupled-enzyme assay for CqsA enzyme kinetics; type: biochemical; conditions: Vh CqsA, acyl CoA substrate, 200 µM SAM
V. cholerae CqsA = V. cholerae CqsA (Vibrio cholerae serotype O1, UniProt Q9KM65); test: Coupled-enzyme assay for CqsA enzyme kinetics; type: biochemical; conditions: for Km / Vmax / kcat: Vc CqsA, acyl CoA substrate, 200 µM SAM
V. cholerae CqsS C170F = V. cholerae CqsS C170F (Vibrio cholerae serotype O1, UniProt Q9KM66, C170F); type: cell-based

## CCCCCCCC(O)C(=O)CC (stereo not drawn) [4-hydroxyundecan-3-one]
[1]
  agonist activity on V. harveyi CqsS (light production in JMH626), in words: inactive

## CCCCCCCCCC(=O)[C@@H](N)CC [Am-CAI-1, (S)-3-aminotridecan-4-one]
[1]; V. harveyi CqsS, data not shown
  potency relative to hydroxy counterpart: comparable to the CAI-1 and C8-CAI-1 counterparts
[2]; V. cholerae CqsS, data not shown
  potency relative to hydroxy counterpart: comparable to the CAI-1 and C8-CAI-1 counterparts

## CCCCCCCC(=O)SCCNC(=O)CCNC(=O)C(O)C(C)(C)COP(=O)(O)OP(=O)(O)OC[C@H]1O[C@@H](n2cnc3c(N)ncnc32)[C@H](O)[C@@H]1OP(=O)(O)O (stereo partly drawn) [C8 CoA, octanoyl CoA]
V. harveyi CqsA
  Km: 14.1 ± 1.3 µM
  Vmax: 0.64 ± 0.02 µM/min
  kcat: 10.7 ± 0.4 min⁻¹
V. cholerae CqsA
  Km: 73 ± 4.9 µM
  Vmax: 1.4 ± 0.05 µM/min
  kcat: 4.5 ± 0.17 min⁻¹

## CCCCCCCC(=O)C(O)CC (stereo not drawn) [C8-CAI-1, 3-hydroxyundecan-4-one]
[1]; EC50, V. harveyi wild-type CqsS
  EC50: 5 µM
[1]
  agonist activity on V. harveyi CqsS (light production in JMH626), in words: weak agonist
[1]; JMH626, 10 µM
  increase in light production: approximately 400 fold
[1]; JMH626, 50 µM
  light production on increasing the concentration: did not further activate light production

## CCCCCCCCCC(=O)SCCNC(=O)CCNC(=O)C(O)C(C)(C)COP(=O)(O)OP(=O)(O)OC[C@H]1O[C@@H](n2cnc3c(N)ncnc32)[C@H](O)[C@@H]1OP(=O)(O)O (stereo partly drawn) [C10 CoA, decanoyl coenzyme A]
V. cholerae CqsA
  substrate preference of V. cholerae CqsA, C10-CoA over C8-CoA (Km and kcat): four- to sixfold
  Km: 13 ± 3.1 µM
  Vmax: 1.2 ± 0.15 µM/min
  kcat: 19.5 ± 2.5 min⁻¹

## CCCCCCCCCC(=O)[C@@H](O)CC [CAI-1, (S)-3-hydroxytridecan-4-one]
[1]
  agonist activity on V. harveyi CqsS (light production in JMH626), in words: insensitive
V. cholerae CqsS C170F
  detection by V. cholerae CqsS C170F, in words: only detects Ea-C8-CAI-1 and C8-CAI-1, but not CAI-1 and Ea-CAI-1

## C/C=C(\N)C(=O)CCCCCCC [Ea-C8-CAI-1, (Z)-3-aminoundec-2-en-4-one]
[1]
  agonist activity on V. harveyi CqsS (light production in JMH626), in words: induce maximal light production
[2]
  difference in EC50 between C8-CAI-1 and Ea-C8-CAI-1: 30 fold
